Results reported in patent publication EP2771349B1, “BIO[…] FOR DETERMINATION OF PEPTIDE BINDING” (Iogenetics, LLC., priority 2011, dated 2013).

Test: Principal components analysis of amino acid physical properties from 31 studies
Settings: for Prin1: first principal component, index of amino acid polarity or hydrophobicity, most hydrophobic highest; for Prin2: second principal component, related to size or volume, smallest has highest score; for Prin3: third principal component
Description: In some cases, principal components of amino acids are utilized to accurately predict binding affinities of sub-sequences of amino acids within the proteins to all MHC-I and MHC-II receptors. Principal Components Analysis is a mathematical process that is used in many different scientific fields and which reduces the dimensionality of a set of data. (Bishop, C.M., Neural Networks for Pattern Recognition. Oxford University Press, Oxford 1995. Bouland, H. and Kamp,Y., Biological Cybernetics 1988. 59: 291-294.). Derivation of principal components is a linear transformation that locates directions of maximum variance in the original input data, and rotates the data along these axes. Typically, the first several principal components contain the most information. Principal components is particularly useful for large datasets with many different variables. Using principal components provides a way to picture the structure of the data as completely as possible by using as few variables as possible. For n original variables, n principal components are formed as follows: The first principal component is the linear combination of the standardized original variables that has the greatest possible variance. Each subsequent principal component is the linear combination of the standardized original variables that has the greatest possible variance and is uncorrelated with all previously defined components. Further, the principal components are scale-independent in that they can be developed from different types of measurements. For example, datasets from HPLC retention times (time units) or atomic radii ([…]) can be consolidated to produce principal components. Another characteristic is that principal components are weighted appropriately for their respective contributions to the response and one common use of principal components is to develop appropriate weightings for regression parameters in multivariate regression analysis. Outside the field of immunology, principal components analysis (PCA) is most widely used in regression analysis. Initial tests were conducted using the principal components in a multiple regression partial least squares (PLS) approach (Wold, S., Sjorstrom,M., and Eriksson,L., Chemometrics and Intelligent Laboratory Systems 2001. 58: 109-130.). Principal component analysis can be represented in a linear network. PCA can often extract a very small number of components from quite high-dimensional original data and still retain the important structure.
Accordingly, in some cases physical properties of amino acids are used for subsequent analysis. The compiled physical properties are available at a proteomics resource website (expasy.org/tools/protscale.html). In some cases, the data for each of the 20 different amino acids from these studies are tabulated, resulting in 20 x 31 different datapoints, each providing a unique estimate of a physical characteristic of that amino acid. The power of principal component analysis lies in the fact that the results of all of these studies can be combined to produce a set of mathematical properties of the amino acids which have been derived by a wide array of independent methodologies. The patterns derived in this way are similar to those of Wold et. al. but the absolute numbers are different. The physicochemical properties derived in the studies used for this calculation are shown in (Table 2). […] All subsequent work described herein is based on use of the first three principal components.
From this it can be seen that the first principal component (Prin1) is an index of amino acid polarity or hydrophobicity; the most hydrophobic amino acids have the highest numerical value. The second principal component (Prin2) is related to the size or volume of the amino acid, with the smallest having the highest score. […]

SMILES	Prin1	Prin2	Prin3
CC(N)C(=O)O (stereo not drawn) [A]	0.72	2.48	1.42
NC(CC(=O)O)C(=O)O (stereo not drawn) [D]	-6.04	0.03	-0.18
NC(CCC(=O)O)C(=O)O (stereo not drawn) [E]	-5.70	0.34	-1.46
NCC(=O)O [G]	-0.76	3.08	1.21
NC(Cc1c[nH]cn1)C(=O)O (stereo not drawn) [H]	-2.55	-1.00	-1.94
NCCCCC(N)C(=O)O (stereo not drawn) [K]	-6.68	-1.32	1.16
NC(=O)CC(N)C(=O)O (stereo not drawn) [N]	-4.35	0.21	0.30
O=C(O)C1CCCN1 (stereo not drawn) [P]	-0.03	-0.36	1.87
NC(=O)CCC(N)C(=O)O (stereo not drawn) [Q]	-3.97	-0.47	0.15
N=C(N)NCCCC(N)C(=O)O (stereo not drawn) [R]	-6.30	-2.93	-0.91
CC(O)C(N)C(=O)O (stereo not drawn) [T]	-1.42	0.80	0.94
